This is an account of results in patent publication US20070196272A1, “ORAL DELIVERY OF THERAPEUTIC AGENTS USING TIGHT JUNCTION AGONISTS” (priority 2006, published 2007).

Like-named read-outs stand apart in the source and are kept apart here.

Series [1] is described as follows: in vitro. The note with it: human, Caco-2.
Experimental: (§1) Caco-2 cells, a human colon adenocarcinoma cell line, were grown as monolayers for 21 days in Dulbecco's Modified Eagle's medium (1×) containing 10% fetal bovine serum, 1% non-essential amino acid solution, 1% penicillin-streptomycin and 2% glutamine at 37° C. in an atmosphere of 5% CO2 and 90% relative humidity. Caco-2 cells from passage numbers of 51 to 52 were seeded on permeable polycarbonate inserts (1 cm^2, 0.4 μm pore size) in 12 Transwell plates at a density of 80,000 cells/cm^2. The inserts were fed with media every other day until they were used for experiments 21 days after the initial seeding. The integrity of the cell monolayers was evaluated by measuring the transepithelial electrical resistance (TEER) values before the study using a Millicell®-ERS meter (Millipore Corp., Bedford, Mass.) with chopstick electrodes. […] The cell monolayers were washed twice with PBS prior to the transport experiments. After the wash, the plates were incubated for 30 min at 37° C., and the integrity of the cell monolayers was evaluated by measurement of TEER. The cell inserts were used in transport experiments when the TEER values reached >300 Ωcm^2.
(§2) The insert was moved to a well containing fresh PBS every 10 min for 40 min.
(§3) Papp was calculated according to the following equation: [formula] […]
(§4) The percent enhancement ratio, ER (%), for the Papp was calculated from the formula, [formula] […]
Series [2] relates to intercellular tight junctions. Nature of the series: Ussing chamber model. From the text:
Our recent observation that zonulin may represent a new member of the serine protease family whose target receptor seems to be a variant of the protease activated receptor (PAR)2, lead us to the observation that the first six amino acids following V. cholerae-mediated ZOT cleavage (AA 289-295 [FCIGRL]) closely resembles the active motif of PAR2 (SLIGRL). Therefore, the six-mer synthetic peptide FCIGRL (that we named AT1002) was generated.

Series [3] concerns Caco-2 cell monolayers. Conditions: AT1002 5 mM.
Experimental: as §1, §2, §3, §4
For series [4] the following is noted: for intestinal transport of [^3H]-cyclosporin A, enhancement: AT-1002 40 mg/kg with PI and BC 0.1% w/v, ID.
Text: Male Sprague-Dawley rats (230-280 g) were purchased from Harlan Laboratories (Indianapolis, Ind.). Rats were housed individually in cages and allowed to acclimate at least two days after arrival. Rats were fed Rat Chow and water ad libitum and maintained on a 12-h light: 12-h dark cycle. The protocol for the animal studies was approved by the School of Pharmacy, University of Maryland IACUC.
Male Sprague-Dawley rats were fasted overnight prior to and during the study with free access to water. Prior to the administration of AT1002, the rats were anesthetized with an intra-peritoneal injection of ketamine (80 mg/kg) and xylazine (12 mg/kg), and the duodenum and jugular vein were cannulated. […] Blood samples (250 μl) were drawn via the jugular cannula into heparinized syringes at 0 (actual time point was −5 min before the administration), 20, 60, and 120 min into polypropylene tubes, centrifuged (13,000 rpm for 10 min) immediately and plasma was obtained. Scintillation cocktail was added and samples were analyzed for radioactivity by Beckman Coulter LS 6500 multi-purpose Scintillation counter.
The area under the plasma concentration-time curve (AUC0-t) was calculated using the linear trapezoidal rule. The highest observable concentration was defined as maximum concentration (Cmax). The percent enhancement ratio, ER (%), for the pharmacokinetic parameters was calculated from the formula, [formula]
[^3H]-cyclosporin (120 μCi/kg) was co-administered with AT-1002 (40 mg/kg), protease inhibitors (i.e. bestatine (30 mg/kg) and E-64 (10 mg/kg)) and benzalkonium chloride (0.1% w/v) to rats (n=5 per group) via the intra-duodenal administration.
For series [5] the following is noted: AT-1002 10 mg/kg with bestatine 30 mg/kg and E-64 10 mg/kg, oral, each sampling time.
Experimental: The ability of AT-1002 on the transport of [^14C]-mannitol across the intestinal membrane was examined in mice. [^14C]-mannitol (30 μCi/kg) was co-administered with AT-1002 (10 mg/kg) and protease inhibitors (i.e. bestatine (30 mg/kg) and E-64 (10 mg/kg)) to mice (n=3 per group) via the oral administration.
The conditions of series [6]: PI, BC 0.05% w/v, ID, not statistically enhanced.
For series [7] the following is noted: AT-1002 10, 20 and 40 mg/kg, PI, BC 0.05% w/v, ID.
Experimental: The effect of AT-1002 on the transport of [^14C]-innulin across the intestine was examined in mice. [^14C]-innulin (30 μCi/kg) was co-administered with AT-1002 (10, 20 and 40 mg/kg), protease inhibitors (i.e. bestatine (30 mg/kg) and E-64 (10 mg/kg)) and benzalkonium chloride (0.05% w/v) to rats (n=4-5 per group) via the intra-duodenal administration.
In series [8] the target is T1, PAR-2 (Mus musculus, UniProt P55086).
T1 construct: Intracolonic infusion of a 5 μg dose of the PAR-2 agonist, SLIGRL; host or cells: colon in vivo (endogenous receptor)
T1 sequence (P55086 26-399): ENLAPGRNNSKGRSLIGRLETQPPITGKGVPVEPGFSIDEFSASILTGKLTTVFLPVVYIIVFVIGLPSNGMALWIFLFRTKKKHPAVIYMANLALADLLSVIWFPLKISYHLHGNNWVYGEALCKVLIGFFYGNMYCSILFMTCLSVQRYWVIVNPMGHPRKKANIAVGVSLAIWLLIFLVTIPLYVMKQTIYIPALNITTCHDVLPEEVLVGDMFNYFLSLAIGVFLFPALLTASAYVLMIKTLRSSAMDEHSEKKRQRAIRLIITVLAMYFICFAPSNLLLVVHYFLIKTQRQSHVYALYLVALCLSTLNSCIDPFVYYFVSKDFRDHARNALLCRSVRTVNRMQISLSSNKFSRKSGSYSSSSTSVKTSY
Conditions: intracolonic infusion, 5 μg dose; cited from earlier work.

In series [9] the test system is Caco-2 cell monolayers. Conditions: ZOT 0.22 to 0.89×10^−10 mol/ml; as seen with paclitaxel; cited from earlier work.
The conditions of series [10]: ZOT 4.4×10^−10 mol/kg; cited from earlier work.
For series [11] the following is noted: as seen with CsA after metabolic protection; cited from earlier work.

As to `OC[C@@H](O)[C@@H](O)[C@H](O)[C@H](O)CO` [Mannitol], the apparent permeability (Papp) at 0.5 μCi/ml in [1] amounted to 0.686 ± 0.057 ×10⁻⁶ cm/s.
Regarding H-FCIGRL-OH [AT1002, H—FCIGRL-OH], the “permeating effect on intercellular tight junctions” value in series [2] was “retained the ZOT permeating effect”. Also, the “CsA transport across Caco-2 cell monolayers, significance vs control” value in series [3] is “No significant increases”. The “intestinal transport of [^3H]-cyclosporin A, enhancement” value amounted to 1.78 fold in series [4] (20 min) and 1.55 fold in series [4] (60 min). The “change in plasma concentration of CsA between 10 mg/kg and 40 mg/kg of AT1002” value in series [4] (each time point) is reported as “No statistically significant change”. In addition, in series [4] (in the presence of PI), the “in vivo oral absorption of CsA” value is given as “significantly increased”. Also, in [5], the “intestinal membrane transport of marker” value is “not enhanced”. The “intestinal membrane transport of [^14C]-mannitol, increase” value in [6] (AT-1002 10 mg/kg) turned out to be 1.43 fold; in series [6] (AT-1002 20 mg/kg), 1.24 fold; in series [6] (AT-1002 30 mg/kg), 1.81 fold. The “intestinal membrane transport of [^14C]-innulin” value in [7] is reported as “not enhanced”.
Turning to SLIGRL, the “increase in the paracellular permeability of [^51C]-EDTA” value in series [8] was 2 fold.
Consider “ZOT: 44.8 kDa protein (399 amino acids) of Vibrio cholerae that reversibly opens tight junctions”, for which the “transport enhancement across Caco-2 cell monolayers” value in series [9] is reported as “up to 30 fold”. In addition, in series [10], the “bioavailability of oral insulin / serum glucose lowering” value is “sufficient to lower serum glucose concentrations to levels comparable to those obtained after parenteral injection”.
In the case of “ΔG: 12 kDa fragment (AA 265-399) of ZOT, biologically active fragment”, in series [11], the “increase in AUC” value is at most 50 fold and the “increase in Cmax” value is recorded as “up to 57 fold”.
